Measured values from patent US12195437B2, “Lipophenolic flavonoid derivatives useful to reduce carbonyl and oxidative stresses (COS)” (Centre National de la Recherche Scientifique (CNRS), priority 2018, dated 2025).
Entries after “also recorded” stand apart in the source; their conditions may differ.

Experiments:
Assay type in all cases: cell-based
[1] = Cytotoxicity of lipophenols on ARPE-19 cells (MTT); conditions: human, ARPE-19 cells (retinal pigment epithelium), tested 0-160 μM, read-out: CC50 (cytotoxic concentration 50)
Description: (§1) Cell viability was determined by MTT colorimetric assay. Cells were incubated for 2 h with MTT reagent (0.5 mg/mL). During this incubation time, dehydrogenases of living cells reduced MTT to insoluble purple formazan, which was then dissolved in DMSO. The absorbance at 570 nm and 655 nm of individual wells was measured using a microplate reader (BioRad 550). The percentage of viable cells was calculated as [(OD570 sample−OD655 sample)/(OD570 control−OD655 control)]×100%.
(§2) ARPE-19 cells were plated into 96-well plates (4×10^4 cells/well) and cultured for 24 h to reach confluence before lipophenol treatment. […] Control cells were incubated with DMSO (0.2%). The viability of the cells was determined using a MTT colorimetric assay. All samples are expressed as percentage of viability compared to non-treated control cells (normalized at 100% survival).
(§3) Results on the measurement of lipophenol toxicity will be discussed in % cell survival at a given lipophenol concentration compared to untreated cells. […] Any concentration of lipophenol resulting in cell survival of less than 5% (zero survival) will be considered a highly toxic concentration.

[2] = tested on: ARPE-19 cells; assay: Cytotoxicity of lipophenols on ARPE-19 cells (MTT); conditions: 24 h
Description: as §1, §2, §3

[3] = tested on: ARPE-19 cells; assay: Protection of lipophenols against all-trans-retinal toxicity (anti-carbonyl stress activity, MTT); conditions: trans-retinal 15 μM; for cell survival gain (anti-carbonyl stress activity): compared to stressed untreated cells
Description: (§4) ARPE-19 cells (cells from the retinal pigment epithelium) were obtained from ATCC, and were grown following the instructions in Dulbecco's Modified Eagle's Medium (DMEM)/Ham F12 (GIBCO) containing 10% v/v fetal bovine serum (FBS) and 1% v/v penicillin/streptomycin under a humidified air (95%)/CO2 (5%) atmosphere at 37° C. For experimental cell seeding and sub-culturing, cells were dissociated with 0.25% trypsin-EDTA, re-suspended in the culture medium and then plated at 1-3×10^5 cells/mL.
as §1
ARPE-19 cells were plated into 96-well plates (4×10^4 cells/well) and cultured for 24 h to reach confluence before lipophenol treatment. The cell cultures were treated with serum free medium containing lipophenols at different concentrations (0-80 μM) for 1 h. Then all-trans-retinal was added to a final concentration of 15 μM for 4 h, before rinsing with medium. Control cells were incubated with DMSO (0.2%)±all-trans-retinal. The cell viability was determined 16-20 h later using a MTT colorimetric assay. All samples are expressed as percentage of viability compared to non-treated and exposed to all-trans-retinal control cells. Non-treated and non-exposed to all-trans-retinal control cells are normalized at 100% survival.
The results on the measurement of anti-carbonyl stress activity will be discussed in % cell survival gain compared to cells stressed by trans-retinal (at 15 μM) and not treated with lipophenols. Any survival gain greater than +5% will be considered as a proven anti-carbonyl stress activity.

[4] = tested on: ARPE-19 cells; assay: Protection of lipophenols against photoactivated A2E toxicity (MTT); conditions: from 40 μM lipophenol (plateau), A2E 20 μM, blue light
Description: as §4, §1
ARPE-19 cells were plated into 96-well plates (4×10^4 cells/well) and cultured for 24 h to reach confluence before lipophenol treatment. The cell cultures were treated with serum free DMEM/F12 medium without phenol red containing lipophenols at different concentrations (0-80 μM) for 1 h. Then A2E was added to a final concentration of 20 μM for 6 h, before rinsing with medium. Control cells were incubated with DMSO (0.2%)+A2E. Cells were exposed to intense blue light (4600 LUX) for 30 min to induce phototoxicity of A2E and incubated at 37° C. The cell viability was determined 16-20 h later using a MTT colorimetric assay. All samples are expressed as percentage of viability compared to non-treated and exposed to A2E control cells. Non-treated and non-exposed to A2E control cells are normalized at 100% survival.
Photoactivation of A2E leads to its oxidation and can generate cytotoxic derivatives, in particular carbonyl derivatives responsible for carbonyl stress. Results on lipophenol protection against photoactivated A2E toxicity will be discussed in % cell survival gain compared to cells stressed by A2E and not treated by lipophenols. This additional evaluation was not performed for all synthesized lipophenolic derivatives but only a selection of them to discuss the results obtained.

[5] = tested on: ARPE-19 cells; assay: Protection of lipophenols against ROS production (DCFDA probe, H2O2); conditions: 80 μM lipophenol, H2O2 600 μM
Description: as §4
Reactive oxygen species (ROS) were measured in ARPE-19 cells with the probe DCFDA. The cell permeant reagent DCFDA is deacetylated by cellular esterases to […], which can be oxidized by ROS into the fluorophore 2′,7′-dichlorofluorescein (DCF). ARPE-19 cells were plated into black, opaque bottom 96-well plates (4×10^4 cells/well) and cultured for 24 h to reach confluence before drug treatment. The cell cultures were incubated with 2 μM of DCFDA for 45 min in DMEM/F12 medium without phenol red+1% FBS. The cells were rinsed and incubated with medium containing lipophenols at different concentrations (0-80 μM) for 1 h. Then H2O2 was added to a final concentration of 600 μM for 4 h, followed by the measurement of DCF production by fluorescence spectroscopy with excitation wavelength at 485 nm and emission wavelength at 535 nm. Control cells were incubated with DMSO (0.2%)±DCFDA±H2O2. All samples are expressed as percentage of ROS production compared to non-oxidized control cells (normalized at 100% of ROS production).
The lowest percentages of increase will therefore be representative of the most protective derivatives.

SMILES | CC50 at 24 h [1] | concentration from which cytotoxicity is induced [2] | cell survival gain (anti-carbonyl stress activity) ([3]; 40 μM lipophenol) | anti-carbonyl stress activity (in words) ([3]; up to 80 μM lipophenol) | cell survival gain against photoactivated A2E [4] | cell survival gain (anti-carbonyl stress activity) ([3]; 80 μM lipophenol) | gain of % of ROS production compared to non-stressed cells [5]
CC/C=C\C/C=C\C/C=C\C/C=C\C/C=C\C/C=C\CCC(=O)Oc1c(-c2ccc(O)c(O)c2)oc2cc(O)cc(OC(C)C)c2c1=O [Q-3DHA-5OiP, (4Z,7Z,10Z,13Z,16Z,19Z)-7-hydroxy-2-(3,4-dihydroxyphenyl)-5-isopropoxy-4-oxo-4H-chromen-3-yl docosa-4,7,10,13,16,19-hexaenoate] | > 40 µM | 60 µM | +27% |  |  |  | 
O=c1c(O)c(-c2ccc(O)c(O)c2)oc2cc(O)cc(O)c12 [quercetin, reference compound] | ~120 µM |  |  | did not show anti-carbonyl stress potency; also recorded: no cellular protection | +36% |  | 
CCCCC/C=C\C/C=C\CCCCCCCC(=O)O[C@H]1Cc2c(O)cc(O)cc2O[C@@H]1c1ccc(O)c(O)c1 [C-3LA, (9Z,12Z)-(2R,3S)-2-(3,4-dihydroxyphenyl)-5,7-dihydroxy-chroman-3-yl octadeca-9,12-dienoate] | < 160 µM |  |  |  |  | +11% | +24%
